Laboratory results published in US11883423B2, “Nucleobase analogue derivatives and their applications” (BOARD OF REGENTS, THE UNIVERSITY OF TEXAS SYSTEM, priority 2014, dated 2024).

System: Panc-1-Luc human pancreatic cells
Test: Anti-proliferative activity, MTT assay, Panc-1-Luc cells
Assay type: cell-based
Conditions: 72 h
Description: The anti-proliferative activity of Gem-DHA was evaluated in Panc-02, TC-1, Panc-1-Luc, and BxPC-3 cell lines. For Panc-02 and TC-1 cells, cells (1,500/well for Panc-02 and 3,000/well for TC-1) were seeded in 96-well plates and incubated at 37° C. and 5% CO2 overnight. The cells were then treated with various concentrations of Gem-DHA or other compounds for 24 h. For BxPC-3 and Panc-1-Luc cells, 3,000 and 1,000 cells/well were used, respectively, and cells were co-incubated with the Gem-DHA for 72 h. Cell viability was determined using an MTT assay as previously described (Naguib YW et al. Mol Pharm. 2014, 11(4), 1239-1249). Gemcitabine HCl was dissolved in cell culture medium, whereas Gem-DHA and DHA were dissolved in dimethylsulfoxide (DMSO). The values of IC50 were calculated using GraphPad Prism (GraphPad software, Inc., La Jolla, CA).

## CC/C=C\C/C=C\C/C=C\C/C=C\C/C=C\C/C=C\CCC(=O)Nc1ccn(C2OC(CO)C(O)C2(F)F)c(=O)n1 (stereo not shown) [Gem-DHA, 4-(N)-Docosahexaenoyl Difluorodeoxycytidine]
  Inhibition of tumor cell growth (comparison): more effective than gemcitabine alone or the physical mixture of gemcitabine and DHA
